This note sets out measurements from patent US9012435B2, “Glucocorticoids attached to nitrate esters via an aromatic linker in position 21 and their use in ophthalmology” (Nicox S.A., priority 2008, dated 2015).

For series [1], the system named is isolated rabbit thoracic aorta preparations. Description: Assay on vascular tone (vasorelaxation of methoxamine-precontracted aortic rings). To be noted: for EC50: Oryctolagus cuniculus, read-out: EC50 (concentration producing 50% of the maximum relaxation). The protocol: The ability of the compounds of the invention to induce vasorelaxation in comparison to precursor compounds was tested in vitro in isolated rabbit thoracic aorta preparations (Wanstall J. C. et al., Br. J. Pharmacol., 134:463-472, 2001). Male New Zealand rabbits (1,8-2 Kg) were used. The animals were anaesthetized with sodium thiopental (50 mg/kg, iv), sacrificed by exsanguinations and then the thorax was opened and the aorta dissected. The aortas were placed immediately in Krebs-HEPES buffer (pH 7.4; composition mM: NaCl 130.0, Kcl 3.7, […] 14.9, KH2PO4 1.2, MgSO4.7H2O 1.2, Glucose 11.0, HEPES 10.0, CaCl2.2H2O 1.6) and cut into ring segments (4-5 mm in length). Each ring was placed in a 5 ml tissue bath filled with Krebs-HEPES buffer (37° C.) aerated with 95% O2 and 5% CO2 and was then attached to a force transducer (Grass FT03), connected to a BIOPAC MP150 System for measurement of the isometric tension^2. The preparations were allowed to equilibrate for 1 h at a resting tension of 2 g with changes of the buffer every 15 minutes and then stimulated by exposure to 90 mM KCl (3 times) with intervening washings. After equilibration, the rings were precontracted submaximally with methoxamine (3 μM) and, when the contraction reach a steady state a cumulative concentration-response curve to the test compounds was obtained. The time intervals between doses were based on the time needed to reach a full a steady state response.
Responses to test compounds were expressed as a percentage of residual contraction and plotted against concentration of test compound. EC50 values (where EC50 is the concentration producing 50% of the maximum relaxation to the test compound) were interpolated from these plots.

The subject of series [2] is VEGF-induced leakage rat model. Description: VEGF-induced retinal vascular leakage rat model (Evans blue). In kind it is in vivo. To be noted: VEGF 100 ng/eye. The protocol:
Pupils were dilated with 1% topical cyclopentolate hydrochloride to see the needle to guide the intravitreal injection. Recombinant rat vascular endothelial growth factor (VEGF; 100 ng/eye) or VEGF at 100 ng/eye plus test compounds were prepared in 0.5% carboxymethyl cellulose (CMC) in sterile saline and was injected into the vitreous with a 30-gauge needle (Xu, Q., et al. Invest. Ophthalmol. Vis. Sci., 42:789-794, 2001). The compounds of the invention were compared to corresponding steroid cores at equimolar doses. […] Control animals received vehicle. Compound (18) was similarly dosed alongside triamcinolone acetonide for comparison.
Retinal vascular leakage was measured as described previously (Xu, Q., et al. Invest. Ophthalmol. Vis. Sci., 42:789-794, 2001). After about 18 hours post injection of test compounds, rats were anesthetized with ketamine (80 mg/kg) and xylazine (4 mg/kg) IP. Then 45 mg/kg Evans blue (EB) was injected into the jugular vein. The dye was allowed to circulate for 2 hours. The chest cavity was opened and rats then perfused with 1% formalin in 0.5 M citrate buffer (pH 3.5, 37° C.) through the left ventricle. Retinas were carefully dissected from enucleated eyes, placed in pre-weighed Eppendorf tubes, dried in speed vacuum overnight and dry weights recorded. Evans blue was extracted by incubating each retina in 120 μl formamide for 18 hours at 70° C., centrifuged for 2 hours at 6000 rpm. Absorbance of 60 μl of extract was measured at 620 nm and background absorbance was determined at 740 nm. Net absorbance was calculated by subtracting the background 740 nm from that at 620 nm. Measurement of a standard curve of Evans blue in formamide was also done and Evans blue leakage expressed as μl/g/h was calculated as shown below: [EB(ng/ml)×120 (μl)×1000]/[dry weight retina (mg)×circulation time (h)×plasma EB(ng/ml)×100]

For another series, the system named is ophthalmic artery. Description: Ocular haemodynamics (Color Doppler Imaging, Pourcelot Resistance Index) in ET-1 induced ischemia. In kind it is in vivo, rabbit. The protocol: Haemodynamic evaluations were performed using an eco-color-doppler DynaView TM II SSD-1700 (Aloka Holding Europe AG, Milan, Italy). All animals underwent Color Doppler Imaging (CDI) investigation before ET-1 injection (T0), before the start of drug instillation (T2) and at the end of the drug treatment (T6). Special attention was devoted to the evaluation of ophthalmic and ciliary artery circulation. Blood flow velocities were measured for each vessel and the Pourcelot Resistance Index (RI) was calculated (Galassi F. et al., Acta Opht. Scand Suppl. (2000) 37-38).

Another series has as its system TNFα. In words: TNFα content in aqueous humor (ELISA), ET-1 induced ischemia. In kind it is in vivo, rabbit. To be noted: ET-1 treated rabbits; 0.5 mg (equivalent)/eye IVT. The protocol:
(§1) Aqueous humor samples were withdrawn from both anterior and posterior chamber fluids of each eye before ET-1 administration (T0), before the administration of Compound (1) or fluorocinolone acetonide (T2), and at the end of treatments (T6). The same volume of saline were reintroduced every time. The aqueous humor samples were immediately frozen at −80° C. until use.
(§2) Tumor necrosis factor (TNFα) and interleukin 6 (IL-6) were determined in aqueous humor with a commercial kit using an ELISA method (Amersham Pharmacia Biotech). The minimum detectable concentrations were 0.10 pg/ml for IL-6 and TNFα. The interassay coefficient of variation was 0.7% for all assays.

The next series has as its system VEGF. Description: VEGF content in aqueous humor, ET-1 induced ischemia. Type of series: in vivo, rabbit. Conditions: ET-1 treated rabbits; 0.5 mg (equivalent)/eye IVT.
For the next series, the system named is IL-6. Description: IL-6 content in aqueous humor (ELISA), ET-1 induced ischemia. Type of series: in vivo, rabbit. Conditions: ET-1 treated rabbits; 0.5 mg (equivalent)/eye IVT. The protocol: as §1, §2
In general terms: In an ELISA, binding on a coated surface is turned into a signal by an enzyme label.

For a further series, the system named is retinal tissue. Description: Retina protection: morphological analysis, ET-1 induced ischemia. Conditions: long term ET-1 treatment; 0.5 mg (equivalent)/eye IVT. Type of series: in vivo, rabbit. The protocol: The eyes of each animal was enucleated, cornea and crystalline were removed and the eyes was paraformaldehyde-fixed. Then samples were dehydrated with increasing alcohol concentration (50°-75°-95°-100°). After 95° alcohol treatment, the eyes were divided into two parts following a longitudinal plain from cornea to insertion of optical nerve. Thus the samples were paraffin-embedded. Section 8 μm thick were stained with Haematoxylin-Eosin. Microscopical fields were registered by digitizing camera applied a light microscope with a 20× and 40× objective. On the digitized images was performed a morphological analysis of retinal tissue.

A further series concerns Brown Norway rats. Description: Steroid-induced intraocular pressure (IOP) elevation in rats after intravitreal injection. Conditions: 39.1 μg/eye (25 μg/eye equivalent) intravitreal.
Setting [3] is: rabbit aortic rings precontracted with methoxamine 3 μM.

Read-outs that look alike come from different tables or passages of the source.

Description for Brown Norway rats: Male Brown Norway rats (250-275 g; Charles River laboratory) were acclimated for a week before IOP measurements. Baseline IOP measurements with Tonolab Tonometer (Tiolat Inc) were done in conscious rats (Pease, M. E., et al J. Glaucoma, 15:512-519, 2006) before intravitreal injection of test compounds. Then the rats were anesthetized with isoflurane inhalation and a drop of 0.5% tetracaine was topically applied on the eyes. Pupils were dilated with 1% topical cyclopentolate hydrochloride and 2.5% phenylephrine HCl to see the needle to aim the intravitreal injection of test compounds. […] For example, to compare to fluocinolone acetonide at both 25 and 50 μg/eye, compound (1) was dosed at 42.4 and 84.7 μg/eye, respectively. The des-nitro analog of compound (1) was dosed at 39.1 μg/eye (equivalent for 25 μg FC). Control animals received vehicle.
Five measurements were averaged for each time point. IOP measurements were taken at one and two weeks after intravitreal injection of test compounds.

Turning to `COc1cc(C(=O)OCCCCO[N+](=O)[O-])ccc1OC(=O)OCC(=O)[C@@]12OC(C)(C)O[C@@H]1CC1C3C[C@H](F)C4=CC(=O)C=C[C@]4(C)[C@@]3(F)[C@@H](O)C[C@@]12C` (stereo partly drawn) [Compound (1), 4-(nitrooxy)butyl 4-((2-((6S,9R,10S,11S,13S,16R,17S)-6,9-difluoro-11-hydroxy-16,17-16,17-(1-methylethylidenebis(oxy))-10,13-dimethyl-3-oxo-6,7,8,9,10,11,12,13,14,15,16,17-dodecahydro-3H-cyclopenta[a]phenanthren-17-yl)-2-oxoethoxy)carbonyloxy)-3-methoxybenzoate], in series [1], the EC50 was 2200 nM. Moreover, the “inhibition of VEGF-induced leakage” value in series [2] (42.4 μg/eye intravitreal (equimolar to 25 μg/eye FC), 18 hours after injection) amounted to 77.1%. Besides, the “Resistence Index” value stood at 0.43 ± 0.08 in the series with ophthalmic artery (After 2 weeks (before drug instillation, T2)); 0.41 ± 0.03 with ophthalmic artery (After 6 weeks (end of drug treatment), 0.5 mg (equivalent)/eye IVT); 0.43 ± 0.06 in the series on ophthalmic artery (Basal). In addition, the “TNFα content in aqueous humor” value in the series on TNFα is 18.93 ± 0.98 pg/mL. Moreover, the “VEGF content in aqueous humor” value in the series on VEGF was found to be 105.79 ± 1.98 pg/mL. Further, the “IL6 content in aqueous humor” value in the series on IL-6 came out at 15.70 ± 1.73 pg/mL. For the same molecule, the “ET-1 induced morphological changes of retinal tissue” value in the series on retinal tissue is “not equally present”.
With `COc1cc(C(=O)OCCCCC(CO[N+](=O)[O-])O[N+](=O)[O-])ccc1OC(=O)OCC(=O)[C@@]12OC(C)(C)O[C@@H]1CC1C3C[C@H](F)C4=CC(=O)C=C[C@]4(C)[C@@]3(F)[C@@H](O)C[C@@]12C` (stereo partly drawn) [Compound (3), 5,6-bis(nitrooxy)hexyl 4-((2-((6S,9R,10S,11S,13S,16R,17S)-6,9-difluoro-11-hydroxy-16,17-((1-methylethylidene)bis(oxy))-10,13-dimethyl-3-oxo-6,7,8,9,10,11,12,13,14,15,16,17-dodecahydro-3H-cyclopenta[a]phenanthren-17-yl)-2-oxoethoxy)carbonyloxy)-3-methoxybenzoate], the EC50 in series [1] (setting [3]) was found to be 210 ± 70 nM.
As for `COc1cc(C(=O)OCCOCCOCCO[N+](=O)[O-])ccc1OC(=O)OCC(=O)[C@@]12OC(C)(C)O[C@@H]1CC1C3C[C@H](F)C4=CC(=O)C=C[C@]4(C)[C@@]3(F)[C@@H](O)C[C@@]12C` (stereo partly drawn) [Compound (5), 2-(2-(2-(nitrooxy)ethoxy)ethoxy)ethyl 4-((2-((6S,9R,10S,11S,13S,16R,17S)-6,9-difluoro-11-hydroxy-16,17-((1-methylethylidene)bis(oxy))-10,13-dimethyl-3-oxo-6,7,8,9,10,11,12,13,14,15,16,17-dodecahydro-3H-cyclopenta[a]phenanthren-17-yl)-2-oxoethoxy)carbonyloxy)-3-methoxybenzoate], the EC50 in series [1] (setting [3]) came to 830 ± 250 nM.
Regarding `CC1(C)O[C@@H]2CC3C4C[C@H](F)C5=CC(=O)C=C[C@]5(C)[C@@]4(F)[C@@H](O)C[C@]3(C)[C@]2(C(=O)COC(=O)Oc2cc(C(=O)OCCCCO[N+](=O)[O-])cc(O)c2O)O1` (stereo partly drawn) [Compound (6), 4-(nitrooxy)butyl 3-((2-((6S,9R,10S,11S,13S,16R,17S)-6,9-difluoro-11-hydroxy-16,17-((1-methylethylidene)bis(oxy))-10,13-dimethyl-3-oxo-6,7,8,9,10,11,12,13,14,15,16,17-dodecahydro-3H-cyclopenta[a]phenanthren-17-yl)-2-oxoethoxy)carbonyloxy)-4,5-dihydroxybenzoate], in series [1] (setting [3]), the EC50 was determined as 1440 ± 410 nM.
On the same count and under the same terms, then `CC1(C)O[C@@H]2CC3C4CCC5=CC(=O)C=C[C@]5(C)[C@@]4(F)[C@@H](O)C[C@]3(C)[C@]2(C(=O)COC(=O)Oc2cc(C(=O)OCCCCO[N+](=O)[O-])cc(O)c2O)O1` (stereo partly drawn) [Compound (10), 4-(nitrooxy)butyl 3-((2-((9R,10S,11S,13S,16R,17S)-9-fluoro-11-hydroxy-16,17-((1-methylethylidene)bis(oxy))-10,13-dimethyl-3-oxo-6,7,8,9,10,11,12,13,14,15,16,17-dodecahydro-3H-cyclopenta[a]phenanthren-17-yl)-2-oxoethoxy)carbonyloxy)-4,5-dihydroxybenzoate], with 2350 ± 980 nM.
Turning to `COc1cc(C(=O)OCCCCO[N+](=O)[O-])ccc1OC(=O)OCC(=O)[C@@]12OC(C)(C)O[C@@H]1CC1C3CCC4=CC(=O)C=C[C@]4(C)[C@@]3(F)[C@@H](O)C[C@@]12C` (stereo partly drawn) [Compound (18), 4-(nitrooxy)butyl 4-((2-((9R,10S,11S,13S,16R,17S)-9-fluoro-11-hydroxy-16,17-(1-methylethylidenebis(oxy))-10,13-dimethyl-3-oxo-6,7,8,9,10,11,12,13,14,15,16,17-dodecahydro-3H-cyclopenta[a]phenanthren-17-yl)-2-oxoethoxy)carbonyloxy)-3-methoxybenzoate], in series [1] (setting [3]), the EC50 is 1560 nM. The “reduction of VEGF-induced leakage” value in series [2] (dose equivalent to 10 μg/eye triamcinolone acetonide, intravitreal) worked out at 54.3%.
On to `CC1(C)O[C@@H]2C[C@H]3[C@@H]4CCC5=CC(=O)C=C[C@]5(C)[C@@]4(F)[C@@H](O)C[C@]3(C)[C@]2(C(=O)CO)O1` [TAAC, Triamcinolone acetonide], for which the “EC50 (concentration producing 50% of the maximum relaxation)” value in series [1] (setting [3]) was “no effect”. For the same molecule, the “reduction of VEGF-induced leakage” value in series [2] (10 μg/eye intravitreal) turned out to be 67.5%.
With `CCCCOC(=O)c1ccc(OC(=O)OCC(=O)C23OC(C)(C)OC2CC2C4CC(F)C5=CC(=O)C=CC5(C)C4(F)C(O)CC23C)c(OC)c1` [des-nitro analog of compound (1), Butyl 4-((2-((6S,9R,10S,11S,13S,16R,17S)-6,9-difluoro-11-hydroxy-16,17-16,17-(1-methylethylidenebis(oxy))-10,13-dimethyl-3-oxo-6,7,8,9,10,11,12,13,14,15,16,17-dodecahydro-3H-cyclopenta[a]phenanthren-17-yl)-2-oxoethoxy)carbonyloxy)-3-methoxybenzoate], the “IOP compared to compound (1) at 42.4 μg/eye (FIG. 4)” value with Brown Norway rats is given as “increase in IOP”.
